PubChem BioAssay (NCI)
Values joined by “and” are separate entries in the source; they are usually repeats but may differ in a detail not shown here. Equal entries are not always repeated.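 Cells were grown in 96-well plates and exposed to each compound for 48 hours at five concentrations; endpoints were interpolated linearly between bracketing concentrations, or set to the highest concentration if not reached. Here, GI50 denotes the concentration required for 50% inhibition of growth. TGI is the concentration that stops growth completely.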

Experiments:
Test in all cases: NCI anticancer screen, dose series, 48 h
T-47D breast = tested on: T-47D breast
M19-MEL melanoma = tested on: M19-MEL melanoma
XF 498 CNS = tested on: XF 498 CNS
RXF-631 renal = tested on: RXF-631 renal
SNB-78 CNS = tested on: SNB-78 CNS
DMS 273 small cell lung = tested on: DMS 273 small cell lung
DMS 114 small cell lung = tested on: DMS 114 small cell lung
LXFL 529 NSCLC = tested on: LXFL 529 NSCLC
MDA-N = tested on: MDA-N

Row | SMILES | GI50 (T-47D breast) [µM] | TGI (T-47D breast) | TGI (M19-MEL melanoma) [µM] | TGI (XF 498 CNS) [µM] | TGI (SNB-78 CNS) [µM] | TGI (DMS 273 small cell lung) [µM] | TGI (DMS 114 small cell lung) [µM] | TGI (LXFL 529 NSCLC) [µM] | other results
1 | C=C1CC(COc2cc(Cl)nc(N)n2)C1 | 23.3 |  |  |  |  |  |  |  | 
2 | CCCSc1cc(Cl)nc(N)n1 | > 100 | > 100 µM |  |  |  |  |  |  | 
3 | CCOc1cccc2nc3cccc(C(=O)NCCN(C)C)c3nc12 |  |  | 2.83 | 3.52 | 9.3 | > 100 | 3.7 | > 21.9 | TGI (RXF-631 renal): 10.5 µM
4 | CN1CCN(Cc2ccc(NC(=O)c3ccc(C(C)(C)C)c(C#Cc4cnc5cccnn45)c3)cc2C(F)(F)F)CC1 | 2.02 | 5.41 µM |  |  |  |  |  |  | 
5 | Cc1cc(C)nc(NS(=O)(=O)c2ccc(Nc3c4ccccc4nc4c(C(=O)N5CCN(CCOS(C)(=O)=O)CC5)ccc(Cl)c34)cc2)n1 |  |  | > 100 | > 100 | > 100 | > 100 | > 100 |  | TGI (RXF-631 renal): > 100 µM
6 | Clc1cc(Cl)c2c(Cl)cc(Cl)c3c2c1N=S=N3 |  |  | > 100 | 49 | > 100 | > 100 | > 100 | > 100 | 
7 | C=CC(=O)N1CCN(c2ncnc3c(F)c(-c4c(O)cccc4F)c(Cl)cc23)CC1 | 10.2 | 42.9 µM |  |  |  |  |  |  | 
8 | CN1CCN(C)C1c1cccc(C2N(C)CCN2C)c1 |  |  | > 100 |  | > 100 | > 100 | > 100 | > 100 | TGI (RXF-631 renal): > 100 µM
9 | CC(=O)OCCOCBr |  |  | > 100 | > 100 |  | > 100 | > 100 | > 100 | TGI (RXF-631 renal): > 100 µM
10 | O=C1c2ccccc2-c2c1c1ccccc1c(=O)n2CCNCCCNCCn1c2c(c3ccccc3c1=O)C(=O)c1ccccc1-2 | 0.719 | 2.12 µM |  |  |  |  |  |  | 
11 | CC(O)CN1C(=O)NC(Cc2ccccc2)C1=O (stereo not drawn) |  |  |  | > 100 | > 100 | > 100 | > 100 | > 100 | 
12 | O=C(c1ccccc1)[C@H]1Nc2cnccc2C2c3ccccc3CC21 (stereo partly drawn) |  |  | 23.8 | 64.4 | > 79.8 | > 63.9 | 30.7 | 19.7 | TGI (RXF-631 renal): > 100 µM
13 | C=CCOc1c(Br)cc(Br)cc1Br | 31.4 | > 100 µM |  |  |  |  |  |  | 
14 | Cn1c(N)nc2c(nc(OCc3ccccc3)n2C2OC(CO)C(O)C2O)c1=O (stereo not drawn) |  | > 100 µM |  |  |  |  |  |  | TGI (MDA-N): > 100 µM
15 | CC(=O)n1c(-c2ccc(Cl)cc2)nc2c(c1=O)C(c1ccc(Cl)cc1)c1sc3c(Cl)cccc3c1O2 (stereo not drawn) | 0.48 | 2.78 µM |  |  |  |  |  |  | 
16 | COc1cc(/C=C2\CC3C4CC=C5CC(N6CCCC6)CC[C@]5(C)C4CC[C@]3(C)C2OC(C)=O)ccc1OCCN1CCCC1 (stereo partly drawn) | 16.8 | 34.5 µM |  |  |  |  |  |  | 

Row | SMILES | GI50 (T-47D breast) [µM] | TGI (T-47D breast) | TGI (M19-MEL melanoma) [µM] | TGI (XF 498 CNS) [µM] | TGI (SNB-78 CNS) [µM] | TGI (DMS 273 small cell lung) [µM] | TGI (DMS 114 small cell lung) [µM] | TGI (LXFL 529 NSCLC) [µM] | other results
17 | COc1ccc(C(=O)C(C(=O)CCC(=O)Nc2cccc(C(F)(F)F)c2)c2ccccc2)cc1 (stereo not drawn) |  |  | > 100 | > 100 | > 100 | > 100 | > 100 | > 100 | 
18 | NC1=NC(=O)C(CC(=O)Nc2ccc([N+](=O)[O-])cc2[N+](=O)[O-])S1 (stereo not drawn) |  |  | > 100 | > 100 | > 100 |  | > 100 | > 100 | TGI (RXF-631 renal): > 100 µM
19 | O=C1c2ccccc2-c2cccc3ccc(Cc4ccccc4)c1c23 |  |  | > 100 | > 100 | > 100 | > 100 | > 100 | > 100 | TGI (RXF-631 renal): > 100 µM
20 | CN(C)CCNC(=O)Nc1c(C#N)[n+]([O-])c2cc(Cl)c(Cl)cc2[n+]1[O-] | 14.6 | > 100 µM |  |  |  |  |  |  | 
21 | CC/C=C\C/C=C\C1CC(=O)NCCCNCCCCN1 (stereo not drawn) |  |  | > 100 |  | > 100 | > 100 | > 100 | > 100 | 
22 | CS(=O)(=O)Nc1ccc(-c2ccc3c(NC(=O)C4CC4)n[nH]c3c2)cc1 | > 13.2 | > 25 µM |  |  |  |  |  |  | 
23 | CC1CCCC(C(=O)/C(=C/c2cccc(Cl)c2)C(=O)C(=O)O)C1 (stereo not drawn) |  |  | 32.7 |  | > 100 | > 100 | 45.7 | 43 | 
24 | COCC(=O)OC1CCn2c1nc1c2C(=O)C(C)=C(NC(C)=O)C1=O (stereo not drawn) | 1.03 | 5.51 µM and 2.68 µM | 25.4 | 11.4 | 4.4 | 33.6 | 5.48 | 11.5 | TGI (MDA-N): 3.39 µM and 3.4 µM
25 | N#CC(C#N)=Cc1cccc(Oc2ccccc2)c1 |  |  | > 79 | 46.6 | 99.9 | 36.1 | 73.2 | 41 | 
26 | COc1ccc(C2C(C#N)=C(N)OC3=C2CCCc2ccc(F)cc23)cc1OC (stereo not drawn) | 46.1 | 98.3 µM |  |  |  |  |  |  | 
27 | Cc1ncc([N+](=O)[O-])n1CCNC(=O)CCCCn1ccnc1[N+](=O)[O-] |  | > 100 µM |  |  |  |  |  |  | TGI (MDA-N): > 100 µM
28 | COc1ccc(/C=C/C(=O)c2sc(-n3nc(-c4ccccc4)cc3-c3ccccc3)nc2C)cc1OC |  |  | > 100 | > 100 |  | > 100 | > 100 | > 100 | TGI (RXF-631 renal): > 100 µM
29 | COC(=O)c1c(O)ccc2[nH]c(C)c(C#N)c12 | 44.4 | > 100 µM |  |  |  |  |  |  | 
30 | COC(=O)NC/C=C\c1nc(CC/C=C\C(=O)OC2CC3CC(=O)O[C@@H](/C=C/CC(C)C)C[C@@H]4CCC(C)C(C[C@@H](OC)CC(C2)O3)O4)co1 (stereo partly drawn) | 45.7 | > 100 µM |  |  |  |  |  |  | 
31 | CC1(C)OC(=O)C=C([O-])O1.CC1(C)OC(=O)C=C([O-])O1.O=c1c(O)c(-c2ccc([O-])cc2[O-])oc2cc(O)cc(O)c12.[Ti+4] |  |  | > 100 |  | > 100 | > 100 | > 100 | > 100 | GI50 (M19-MEL melanoma): 92.1 µM; GI50 (SNB-78 CNS): > 100 µM; GI50 (DMS 273 small cell lung): 32.2 µM; GI50 (DMS 114 small cell lung): 64.7 µM; GI50 (LXFL 529 NSCLC): > 100 µM
32 | Nc1ccc(SC23CC4CC(CC(C4)C2)C3)cc1 |  | > 100 µM |  |  |  |  |  |  | 
